Assay results from patent US20260356856A1, “KRAS G12S AND G12C INHIBITORS” (MIRATI THERAPEUTICS, INC., priority 2023, published 2026).

Tests used:
KRas G12S = target: T1, KRas G12S (Homo sapiens, UniProt P01116, G12S); experiment: KRas binding assay, TR-FRET displacement of Cy5 labelled tracer; conditions: 60-minute incubation at room temperature, 1% DMSO, pH 7.5
T1 construct: Biotinylated KRas (corresponding to amino acids 1-169, produced at Accelegan Inc.); biotin (biotinylated); purchased Accelegan Inc
T1 sequence (P01116 1-169 isoform P01116-2 G12S): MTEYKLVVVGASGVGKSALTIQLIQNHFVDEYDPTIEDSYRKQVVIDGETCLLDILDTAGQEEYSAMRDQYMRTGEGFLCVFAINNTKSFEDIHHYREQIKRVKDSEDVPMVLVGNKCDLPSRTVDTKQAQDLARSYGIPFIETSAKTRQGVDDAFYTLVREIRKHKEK
How it was run: (§1)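 KRas aa 1-169, biotinylated; Tb-streptavidin donor; 1% DMSO final. Buffer: HEPES 50 mM (pH 7.5), MgCl2 5 mM, DTT 1 mM, Tween-20 0.005%. 60 min, RT. IC50 from 4-parameter fit of POC.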

KRas WT = target: T2, KRas WT (Homo sapiens, UniProt P01116); experiment: as above; conditions: 60-minute incubation at room temperature, 1% DMSO, pH 7.5
T2 construct: Biotinylated KRas (corresponding to amino acids 1-169, produced at Accelegan Inc.); biotin (biotinylated); purchased Accelegan Inc
T2 sequence (P01116 1-169 isoform P01116-2): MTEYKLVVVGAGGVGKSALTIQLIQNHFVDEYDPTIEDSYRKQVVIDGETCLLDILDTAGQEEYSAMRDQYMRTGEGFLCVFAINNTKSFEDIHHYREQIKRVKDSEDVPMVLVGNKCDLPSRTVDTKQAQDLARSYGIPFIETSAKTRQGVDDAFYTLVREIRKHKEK
How it was run: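 Tb-streptavidin captured biotinylated KRas (1-169) in HEPES 50 mM, DTT 1 mM, MgCl2 5 mM, Tween-20 0.005% (pH 7.5), alongside tracer and compound at 1% final DMSO. One hour at RT, then read; IC50 from 4-parameter POC fit.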

KRas G12C = target: T3, KRas G12C (Homo sapiens, UniProt P01116, G12C); experiment: as above; conditions: 60-minute incubation at room temperature, 1% DMSO, pH 7.5
T3 construct: Biotinylated KRas (corresponding to amino acids 1-169, produced at Accelegan Inc.); biotin (biotinylated); purchased Accelegan Inc
T3 sequence (P01116 1-169 isoform P01116-2 G12C): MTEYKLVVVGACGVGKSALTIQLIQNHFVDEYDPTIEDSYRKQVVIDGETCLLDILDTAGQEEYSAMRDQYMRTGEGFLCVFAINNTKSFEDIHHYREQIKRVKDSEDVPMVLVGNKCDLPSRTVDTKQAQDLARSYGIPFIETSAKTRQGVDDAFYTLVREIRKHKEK
How it was run: as §1

[1] = target: T4, KRas-mediated phosphorylation of ERK in MKN1 cells (Homo sapiens, UniProt P01116); experiment: Inhibition of KRas-mediated phosphorylation of ERK (HTRF), MKN1 cells; format: cell-based; conditions: MKN1 cells (KRas WT); HTRF pERK; 3 h incubation
T4 construct: pERK HTRF read-out
T4 sequence (P01116 1-188 isoform P01116-2): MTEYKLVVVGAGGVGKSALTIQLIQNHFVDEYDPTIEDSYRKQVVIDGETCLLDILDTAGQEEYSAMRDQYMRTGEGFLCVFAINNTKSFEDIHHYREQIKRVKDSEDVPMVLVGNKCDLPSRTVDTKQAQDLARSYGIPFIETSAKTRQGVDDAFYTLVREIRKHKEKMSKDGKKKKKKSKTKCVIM
Description: Inhibition of KRas Phosphorylation of ERK (HTRF) by Exemplary Compounds of Formula (Ia) or (Ib)
Cisbio HTRF Advanced pERK Assay Catalog #64AERPEH • Cells: MKN1, PSN1 • Procedure: • 1. Day 1: Seed 6,000 cells/well −25 μl/well in 384-well white solid bottom plate; RPM1_10% FBS. Incubate overnight at 37 °C/5% CO2. • 2.

[2] = target: T5, KRas-mediated phosphorylation of ERK in A549 cells (Homo sapiens, UniProt P01116, G12S); experiment: Inhibition of KRas-mediated phosphorylation of ERK (HTRF), A549 cells; format: cell-based; conditions: HTRF pERK, 3 h incubation
T5 construct: pERK HTRF read-out
T5 sequence (P01116 1-188 isoform P01116-2 G12S): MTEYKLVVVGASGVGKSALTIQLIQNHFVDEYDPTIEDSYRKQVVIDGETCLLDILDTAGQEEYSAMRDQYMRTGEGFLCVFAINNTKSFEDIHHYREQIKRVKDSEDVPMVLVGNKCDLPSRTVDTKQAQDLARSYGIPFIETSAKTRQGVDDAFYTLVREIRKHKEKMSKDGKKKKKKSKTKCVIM

| IC50 (KRas G12S) | IC50 (KRas WT) | IC50 (KRas G12C) | IC50 [1] | IC50 [2] | Compound |
| --- | --- | --- | --- | --- | --- |
| 10 nM | 147 nM | 19 nM | 108 nM | 140 nM | CCc1c(F)ccc2cc(O)cc(N3CCc4c(nc(OC[C@@]56CCCN5C[C@H](F)C6)nc4N4CCCCC(C(=O)n5ccc(C)n5)CC4)C3)c12 (stereo partly drawn) [Example 148, (1-(7-(8-ethyl-7-fluoro-3-hydroxynaphthalen-1-yl)-2-(((2R,7aS)-2-fluorotetrahydro-1H-pyrrolizin-7a(5H)-yl)methoxy)-5,6,7,8-tetrahydropyrido[3,4-d]pyrimidin-4-yl)azocan-4-yl)(3-methyl-1H-pyrazol-1-yl)methanone] |
| 1470 nM | 1310 nM | 3740 nM | 6530 nM | > 10000 nM | CCc1c(F)ccc2cc(O)cc(N3CCc4c(nc(OC[C@@]56CCCN5C[C@H](F)C6)nc4N4CCCC(C(=O)n5ccc(C)n5)CCC4)C3)c12 [Example 149, (1-(7-(8-ethyl-7-fluoro-3-hydroxynaphthalen-1-yl)-2-(((2R,7aS)-2-fluorotetrahydro-1H-pyrrolizin-7a(5H)-yl)methoxy)-5,6,7,8-tetrahydropyrido[3,4-d]pyrimidin-4-yl)azocan-5-yl)(3-methyl-1H-pyrazol-1-yl)methanone] |
| 23 nM | 13 nM | 29 nM | 112 nM | 126 nM | CCc1c(F)ccc2cc(O)cc(-c3ncc4c(NC[C@@H]5C[C@H]5C(=O)n5ccc(C)n5)nc(OC[C@@]56CCCN5C[C@H](F)C6)nc4c3F)c12 [Example 158, ((1R,2R)-2-(((7-(8-ethyl-7-fluoro-3-hydroxynaphthalen-1-yl)-8-fluoro-2-(((2R,7aS)-2-fluorotetrahydro-1H-pyrrolizin-7a(5H)-yl)methoxy)pyrido[4,3-d]pyrimidin-4-yl)amino)methyl)cyclopropyl)(3-methyl-1H-pyrazol-1-yl)methanone] |
| 461 nM | 258 nM | 1790 nM | 3690 nM | 3380 nM | CCc1c(F)ccc2cc(O)cc(-c3ncc4c(N5C[C@H]6C[C@H](C(=O)n7ccc(C)n7)C[C@H]6C5)nc(OC[C@@]56CCCN5C[C@H](F)C6)nc4c3F)c12 [Example 160, ((3aR,5R,6aS)-2-(7-(8-ethyl-7-fluoro-3-hydroxynaphthalen-1-yl)-8-fluoro-2-(((2R,7aS)-2-fluorotetrahydro-1H-pyrrolizin-7a(5H)-yl)methoxy)pyrido[4,3-d]pyrimidin-4-yl)octahydrocyclopenta[c]pyrrol-5-yl)(3-methyl-1H-pyrazol-1-yl)methanone] |
| 129 nM | 98 nM | 131 nM | 1250 nM | 7590 nM | CCc1c(F)ccc2cc(O)cc(-c3ncc4c(N(C)CCCS(=O)(=O)n5ccnc5)nc(OC[C@@]56CCCN5C[C@H](F)C6)nc4c3F)c12 [Example 163, 4-(4-((3-((1H-imidazol-1-yl)sulfonyl)propyl)(methyl)amino)-8-fluoro-2-(((2R,7aS)-2-fluorotetrahydro-1H-pyrrolizin-7a(5H)-yl)methoxy)pyrido[4,3-d]pyrimidin-7-yl)-5-ethyl-6-fluoronaphthalen-2-ol] |
| 203 nM | 229 nM | 310 nM | 622 nM | 1780 nM | CCc1c(F)ccc2cc(O)cc(-c3ncc4c(N5CCC(C(=O)N(C)C(=O)C(C)C)CC5)nc(OC[C@@]56CCCN5C[C@H](F)C6)nc4c3F)c12 [Example 166, 1-(7-(8-ethyl-7-fluoro-3-hydroxynaphthalen-1-yl)-8-fluoro-2-(((2R,7aS)-2-fluorotetrahydro-1H-pyrrolizin-7a(5H)-yl)methoxy)pyrido[4,3-d]pyrimidin-4-yl)-N-isobutyryl-N-methylpiperidine-4-carboxamide] |
| 72 nM | 1380 nM | 384 nM | 8690 nM | 245 nM | CCc1c(F)ccc2cc(O)cc(-c3ncc4c(N5CCCC(C(=O)n6ccc(C)n6)CC5)nc(OC[C@@H]5CCCN5C)nc4c3F)c12 (stereo partly drawn) [Example 168, (1-(7-(8-ethyl-7-fluoro-3-hydroxynaphthalen-1-yl)-8-fluoro-2-(((S)-1-methylpyrrolidin-2-yl)methoxy)pyrido[4,3-d]pyrimidin-4-yl)azepan-4-yl)(3-methyl-1H-pyrazol-1-yl)methanone] |
| 27 nM | 31 nM | 29 nM | 54 nM | 772 nM | Cc1ccn(C(=O)C2CCCCCN(c3nc(OC[C@@]45CCCN4C[C@H](F)C5)nc4c(F)c(-c5ccc(F)c6sc(N)c(C#N)c56)c(Cl)cc34)C2)n1 (stereo partly drawn) [Example 173, 2-amino-4-(6-chloro-8-fluoro-2-(((2R,7aS)-2-fluorotetrahydro-1H-pyrrolizin-7a(5H)-yl)methoxy)-4-(3-(3-methyl-1H-pyrazole-1-carbonyl)azocan-1-yl)quinazolin-7-yl)-7-fluorobenzo[b]thiophene-3-carbonitrile] |
| 182 nM | 1120 nM | 1120 nM | 3000 nM | 507 nM | CCc1c(F)ccc2cc(O)cc(-c3c(F)cc4c(N5CCCC(C(=O)n6ccc(C)n6)CC5)nc(OC[C@@]56CCCN5C[C@H](F)C6)nc4c3F)c12 (stereo partly drawn) [Example 174, (1-(7-(8-ethyl-7-fluoro-3-hydroxynaphthalen-1-yl)-6,8-difluoro-2-(((2R,7aS)-2-fluorotetrahydro-1H-pyrrolizin-7a(5H)-yl)methoxy)quinazolin-4-yl)azepan-4-yl)(3-methyl-1H-pyrazol-1-yl)methanone] |
| 42 nM | 26 nM | 64 nM | 110 nM | 167 nM | Cc1ccn(C(=O)[C@@H]2[C@@H]3CCN(c4nc(OC[C@@]56CCCN5C[C@H](F)C6)nc5c(F)c(-c6ccc(F)c7sc(N)c(C#N)c67)c(Cl)cc45)C[C@@H]32)n1 [Example 179, 2-amino-4-(6-chloro-8-fluoro-2-(((2R,7aS)-2-fluorotetrahydro-1H-pyrrolizin-7a(5H)-yl)methoxy)-4-((1S,6R)-7-(3-methyl-1H-pyrazole-1-carbonyl)-3-azabicyclo[4.1.0]heptan-3-yl)quinazolin-7-yl)-7-fluorobenzo[b]thiophene-3-carbonitrile] |
| 38 nM | 35 nM | 24 nM | 247 nM | 179 nM | Cc1ccn(C(=O)[C@H]2C[C@H]2CNc2nc(OC[C@@]34CCCN3C[C@H](F)C4)nc3c(F)c(-c4ccc(F)c5sc(N)c(C#N)c45)c(Cl)cc23)n1 [Example 182, 2-amino-4-(6-chloro-8-fluoro-2-(((2R,7aS)-2-fluorotetrahydro-1H-pyrrolizin-7a(5H)-yl)methoxy)-4-((((cis)-2-(3-methyl-1H-pyrazole-1-carbonyl)cyclopropyl)methyl)amino)quinazolin-7-yl)-7-fluorobenzo[b]thiophene-3-carbonitrile] |
| 3 nM | 5 nM | 4 nM | 192 nM | 143 nM | Cc1ccn(C(=O)C23CCC(CN(c4nc(OC[C@@]56CCCN5C[C@H](F)C6)nc5c(F)c(-c6ccc(F)c7sc(N)c(C#N)c67)c(Cl)cc45)C2)C3)n1 (stereo partly drawn) [Example 183, 2-amino-4-(6-chloro-8-fluoro-2-(((2R,7aS)-2-fluorotetrahydro-1H-pyrrolizin-7a(5H)-yl)methoxy)-4-(1-(3-methyl-1H-pyrazole-1-carbonyl)-3-azabicyclo[3.2.1]octan-3-yl)quinazolin-7-yl)-7-fluorobenzo[b]thiophene-3-carbonitrile] |
| 6 nM | 27 nM | 5 nM | 1500 nM | 115 nM | Cc1ccn(C(=O)C23CC(CNc4nc(OC[C@@]56CCCN5C[C@H](F)C6)nc5c(F)c(-c6ccc(F)c7sc(N)c(C#N)c67)c(Cl)cc45)(C2)C3)n1 [Example 184, 2-amino-4-(6-chloro-8-fluoro-2-(((2R,7aS)-2-fluorotetrahydro-1H-pyrrolizin-7a(5H)-yl)methoxy)-4-(((3-(3-methyl-1H-pyrazole-1-carbonyl)bicyclo[1.1.1]pentan-1-yl)methyl)amino)quinazolin-7-yl)-7-fluorobenzo[b]thiophene-3-carbonitrile] |
| 12 nM | 6 nM | 18 nM | 65 nM | 250 nM | Cc1ccn(C(=O)[C@H]2CCN(c3nc(OC[C@@]45CCCN4C[C@H](F)C5)nc4c(F)c(-c5ccc(F)c6sc(N)c(C#N)c56)c(Cl)cc34)C[C@H]2C)n1 [Example 185, 2-amino-4-(6-chloro-8-fluoro-2-(((2R,7aS)-2-fluorotetrahydro-1H-pyrrolizin-7a(5H)-yl)methoxy)-4-((cis)-3-methyl-4-(3-methyl-1H-pyrazole-1-carbonyl)piperidin-1-yl)quinazolin-7-yl)-7-fluorobenzo[b]thiophene-3-carbonitrile] |
